What all share (format): cell-based
One test relates to S. uberis ATCC 19436. As to the kind of experiment: MIC by broth microdilution, S. uberis. As to conditions: Streptococcus uberis, read-out: S. uberis ATCC 19436 MIC. How it is done:
(§1) Antibacterial susceptibility testing was performed in triplicate (biological) by measuring minimum inhibitory concentrations (MICs) by broth microdilution in 96-well flat bottom microtiter plates (ThermoFisher Scientific, New Zealand). S. uberis ATCC 19436, S. aureus ATCC 6538, or E. coli ATCC 10596 cells grown overnight were diluted to an OD600 of approximately 0.025, so that the final concentration of cells in the MIC assay was approximately 5×10^5 cfu/mL in media as follows: S. uberis; Todd Hewitt Broth (THB), S. aureus; Tryptic Soy Broth (TSB) and Cation Adjusted Muller Hinton Broth (CAMHB), and E. coli; Lysogeny Borth (LB) and CAMHB, before being dispensed into microtiter wells. As required additional sterile Zinc Sulphate (Heptahydrate) was supplemented into the media, so the final concentration was 50 μM. Test compounds were added to starting wells and two-fold serial dilutions were undertaken to generate a range of inhibitor concentrations at a final volume of 200 μl. Media and test compound-free (untreated) controls were included in each microtiter plate in triplicate. After 24 h incubation at 37° C. and 200 rpm, the OD600 of wells were read using a Varioskan Flash plate reader (ThermoFisher Scientific, New Zealand). The MIC was reported as the lowest concentration of the test compound for which no growth occurred, as determined by OD600 readings. The minimum bactericidal concentration (MBC) was determined using the Miles-Misra drop-plate method to measure the viability of cells in response to test compound challenge.
For orientation: Broth dilution looks for growth in wells or tubes with falling amounts of substance.

The subject of another test is S. aureus ATCC 6538. As to the kind of experiment: MIC by broth microdilution, S. aureus. As to conditions: Staphylococcus aureus, read-out: S. aureus ATCC 6538 MIC. The method, then: as §1
A further test relates to E. coli ATCC 10596. The test can be described thus: MIC by broth microdilution, E. coli. As to conditions: Escherichia coli, read-out: E. coli ATCC 10536 MIC. How it is done: as §1
Setting [1] is: ATCC 10536 / ATCC 10596, No Zinc.
The mark [2] stands for this setting: ATCC 10536 / ATCC 10596, Zinc (50 μM).

Values after ≈ are worked out from the molar mass of the structure shown. Read-outs that look alike come from different tables or passages of the source.

Turning to `CSc1ccc(S(=O)(=O)Nc2cccc3ccc(CN(C)C)nc23)cc1` [ZDR257, N-(2-((Dimethylamino)methyl)quinolin-8-yl)-4-(methylthio)benzenesulfonamide], the minimum inhibitory concentration (MIC) (usually the smallest concentration in the dilution series that meets the test's criterion for growth inhibition) in the test with S. uberis ATCC 19436 (ATCC19436, No Zinc) was more than 256 µg/mL; in the test with S. uberis ATCC 19436 (ATCC19436, Zinc (50 μM)), 0.0625 µg/mL (≈ 0.161 µM); in the test on S. aureus ATCC 6538 (ATCC6538, No Zinc), more than 256 µg/mL; in the test with S. aureus ATCC 6538 (ATCC6538, Zinc (50 μM)), more than 256 µg/mL; in the test with E. coli ATCC 10596 (setting [1]), more than 256 µg/mL; in the test with E. coli ATCC 10596 (setting [2]) it was more than 256 µg/mL.
Take `O=S(=O)(Nc1cccc2ccc(CNCC(F)F)nc12)c1ccc(C(F)(F)F)cc1` [ZDR100, N-(2-(((2,2-Difluoroethyl)amino)methyl)quinolin-8-yl)-4-(trifluoromethyl)benzenesulfonamide]: the minimum inhibitory concentration (MIC) is 128 µg/mL (≈ 287 µM) with S. uberis ATCC 19436 (ATCC19436, No Zinc); 0.25 µg/mL (≈ 0.561 µM) with S. uberis ATCC 19436 (ATCC19436, Zinc (50 μM)); 32 µg/mL (≈ 71.8 µM) with S. aureus ATCC 6538 (ATCC6538, No Zinc); 256 µg/mL (≈ 575 µM) with S. aureus ATCC 6538 (ATCC6538, Zinc (50 μM)); more than 256 µg/mL with E. coli ATCC 10596 (setting [1]); more than 256 µg/mL in the test on E. coli ATCC 10596 (setting [2]).
For `COCCOCCNCc1ccc2cccc(NS(=O)(=O)c3ccc(C(F)(F)F)cc3)c2n1` [ZDR131, N-(2-(((2-(2-Methoxyethoxy)ethyl)amino)methyl)quinolin-8-yl)-4-(trifluoromethyl)benzenesulfonamide], the MIC in the test on S. uberis ATCC 19436 (ATCC19436, No Zinc) came out at 64 µg/mL (≈ 132 µM); in the test on S. uberis ATCC 19436 (ATCC19436, Zinc (50 μM)) it was 1 µg/mL (≈ 2.07 µM); with S. aureus ATCC 6538 (ATCC6538, No Zinc) it was 64 µg/mL (≈ 132 µM); in the test with S. aureus ATCC 6538 (ATCC6538, Zinc (50 μM)), 128 µg/mL (≈ 265 µM); in the test on E. coli ATCC 10596 (setting [1]), 256 µg/mL (≈ 529 µM); with E. coli ATCC 10596 (setting [2]), 256 µg/mL (≈ 529 µM).
Consider `CN(C)Cc1ccc2cccc(NS(=O)(=O)c3ccccc3)c2n1` [ZDR061, N-(2-((Dimethylamino)methyl)quinolin-8-yl)benzenesulfonamide], for which the MIC is more than 256 µg/mL in the test with S. uberis ATCC 19436 (ATCC19436, No Zinc); 0.25 µg/mL (≈ 0.732 µM) in the test with S. uberis ATCC 19436 (ATCC19436, Zinc (50 μM)); more than 256 µg/mL with S. aureus ATCC 6538 (ATCC6538, No Zinc); 256 µg/mL (≈ 750 µM) in the test with S. aureus ATCC 6538 (ATCC6538, Zinc (50 μM)); more than 256 µg/mL in the test on E. coli ATCC 10596 (setting [1]); more than 256 µg/mL in the test with E. coli ATCC 10596 (setting [2]).
Consider `COc1cccc(S(=O)(=O)Nc2cccc3ccc(CN(C)C)nc23)c1` [ZDR314, N-(2-((Dimethylamino)methyl)quinolin-8-yl)-3-methoxybenzenesulfonamide], for which the MIC with S. uberis ATCC 19436 (ATCC19436, No Zinc) was 128 µg/mL (≈ 345 µM); in the test on S. uberis ATCC 19436 (ATCC19436, Zinc (50 μM)), 0.25 µg/mL (≈ 0.673 µM); in the test on S. aureus ATCC 6538 (ATCC6538, No Zinc), 256 µg/mL (≈ 689 µM); with S. aureus ATCC 6538 (ATCC6538, Zinc (50 μM)), more than 256 µg/mL; with E. coli ATCC 10596 (setting [1]), more than 256 µg/mL; in the test on E. coli ATCC 10596 (setting [2]), more than 256 µg/mL.
As to `O=S(=O)(Nc1cccc2ccc(CNCCN3CCSCC3)nc12)c1ccc(C(F)(F)F)cc1` [ZDR113, N-(2-(((2-Thiomorpholinoethyl)amino)methyl)quinolin-8-yl)-4-(trifluoromethyl)benzenesulfonamide], the MIC with S. uberis ATCC 19436 (ATCC19436, No Zinc) is 128 µg/mL (≈ 251 µM); in the test on S. uberis ATCC 19436 (ATCC19436, Zinc (50 μM)), 1 µg/mL (≈ 1.96 µM); in the test with S. aureus ATCC 6538 (ATCC6538, No Zinc), more than 256 µg/mL; in the test with S. aureus ATCC 6538 (ATCC6538, Zinc (50 μM)), more than 256 µg/mL; in the test with E. coli ATCC 10596 (setting [1]) it was more than 256 µg/mL; in the test on E. coli ATCC 10596 (setting [2]), more than 256 µg/mL.
For `O=S(=O)(Nc1cccc2ccc(CNCc3cccnc3)nc12)c1ccc(C(F)(F)F)cc1` [ZDR101, N-(2-(((Pyridin-3-ylmethyl)amino)methyl)quinolin-8-yl)-4-(trifluoromethyl)benzenesulfonamide], the minimum inhibitory concentration (MIC) in the test with S. uberis ATCC 19436 (ATCC19436, No Zinc) is more than 256 µg/mL; in the test on S. uberis ATCC 19436 (ATCC19436, Zinc (50 μM)), 4 µg/mL (≈ 8.47 µM); in the test with S. aureus ATCC 6538 (ATCC6538, No Zinc), 64 µg/mL (≈ 135 µM); in the test on S. aureus ATCC 6538 (ATCC6538, Zinc (50 μM)), 64 µg/mL (≈ 135 µM); in the test with E. coli ATCC 10596 (setting [1]) it was 128 µg/mL (≈ 271 µM); in the test on E. coli ATCC 10596 (setting [2]), more than 256 µg/mL.
On to `CN(C)Cc1ccc2cccc(NS(=O)(=O)c3ccsc3)c2n1` [ZDR081, N-(2-((Dimethylamino)methyl)quinolin-8-yl)thiophene-3-sulfonamide], for which the MIC is 256 µg/mL (≈ 737 µM) in the test with S. uberis ATCC 19436 (ATCC19436, No Zinc); 0.25 µg/mL (≈ 0.719 µM) in the test with S. uberis ATCC 19436 (ATCC19436, Zinc (50 μM)); more than 256 µg/mL in the test on S. aureus ATCC 6538 (ATCC6538, No Zinc); more than 256 µg/mL in the test on S. aureus ATCC 6538 (ATCC6538, Zinc (50 μM)); more than 256 µg/mL in the test on E. coli ATCC 10596 (setting [1]); more than 256 µg/mL in the test with E. coli ATCC 10596 (setting [2]).
As for `CN(C)Cc1ccc2cccc(NS(=O)(=O)CC3CCOCC3)c2n1` [ZDR504, N-(2-((Dimethylamino)methyl)quinolin-8-yl)-1-(tetrahydro-2H-pyran-4-yl)methanesulfonamide], the minimal inhibitory concentration (MIC) was more than 256 µg/mL with S. uberis ATCC 19436 (ATCC19436, No Zinc); 0.5 µg/mL (≈ 1.38 µM) in the test with S. uberis ATCC 19436 (ATCC19436, Zinc (50 μM)); more than 256 µg/mL in the test with S. aureus ATCC 6538 (ATCC6538, No Zinc); 256 µg/mL (≈ 704 µM) in the test with S. aureus ATCC 6538 (ATCC6538, Zinc (50 μM)); more than 256 µg/mL in the test with E. coli ATCC 10596 (setting [1]); more than 256 µg/mL in the test with E. coli ATCC 10596 (setting [2]).
On to `CC(=O)Nc1cccc(S(=O)(=O)Nc2cccc3ccc(CN(C)C)nc23)c1` [ZDR327, N-(3-(N-(2-((Dimethylamino)methyl)quinolin-8-yl)sulfamoyl)phenyl)acetamide], for which the MIC with S. uberis ATCC 19436 (ATCC19436, No Zinc) was 256 µg/mL (≈ 642 µM); in the test with S. uberis ATCC 19436 (ATCC19436, Zinc (50 μM)), 8 µg/mL (≈ 20.1 µM); with S. aureus ATCC 6538 (ATCC6538, No Zinc), more than 256 µg/mL; with S. aureus ATCC 6538 (ATCC6538, Zinc (50 μM)), more than 256 µg/mL; in the test with E. coli ATCC 10596 (setting [1]), more than 256 µg/mL; in the test on E. coli ATCC 10596 (setting [2]) it was more than 256 µg/mL.

Values taken from patent US11691949B2, “Quinoline sulfonamide compounds and their use as antibacterial agents” (OTAGO INNOVATION LIMITED, priority 2017, dated 2023).
